A short description of data set [1]: Solubility of DMPA in solvents and solvent blends (mixed on shaker, appearance observed). Type of data set: physicochemical. The following applies: for affinity in terms of solubility toward DMPA: neat solvent, weight ratio solvent:DMPA 9:1, room temperature (23° C.), FIG. 2. The method, then: At room temperature (23° C.), 1 gram (g) of DMPA and 9 g solvent are added into a glass bottle and mixed on a shaker for 30 minutes. After shaking, the appearance of the mixture in each bottle is observed for solubility. The solvent is either neat dialkyl amide or a blend of dialkyl amide with PROGLYDE™ DMM dipropylene glycol dimethyl ether. Blends are prepared in three blend ratios: 2:1, 1:1, and 1:2 ether:dialkyl amide.
At room temperature (23° C.), 1 g DMPA and various weights of solvent are added into a glass bottle, then mixed for 30 minutes before checking the appearance.
(§1) The vapor pressures versus temperature profiles of neat PROGLYDE™ DMM dipropylene glycol dimethyl ether, neat N,N-DMPA, and of three different blends of dipropylene glycol dimethyl ether and N,N-DMPA containing 83 wt %, 55 wt %, and 35 wt % dipropylene glycol dimethyl ether respectively are measured in an ebulliometer in the 5-760 millimeters of mercury (mmHg) pressure range by ASTM E1719 to obtain Antoine constants and the normal boiling points of pure components and blends. Pseudo-azeotropes and actual minimum boiling azeotropes are indicated by a normal boiling point which is lower than the boiling point of either of the neat components. The solubility of DMPA in these blends is also evaluated at 25° C. at the DMPA:solvent blend ratio of 1:9. The composition of the blends is detailed in Table 1 below: […]

Data set [2] is described as follows: Vapor pressure versus temperature profiles and normal boiling points in ebulliometer (ASTM E1719). It counts as physicochemical. The method, then: as §1

The structures appear in SMILES notation.

For `COCCC(=O)N(C)C` [M3-N,N-DMPA, 3-methoxy-N,N-dimethyl propionamide], in data set [1], the “affinity in terms of solubility toward DMPA” value is given as “good affinity toward DMPA”.
On the same count and under the same terms, the value for `CCN(CC)C(C)=O` [N,N-DEAC, N,N-diethylacetamide] was “good affinity toward DMPA”.
In the case of `CCC(=O)N(C)C` [N,N-DMPA, N,N-dimethylpropionamide], the “solubility of DMPA in N,N-DMPA at different weight ratios” value in data set [1] (dialkyl amide to DMPA 3:1 to 8:1, 23° C., FIG. 4) was “can dissolve DMPA effectively”. For the same compound, in data set [1], the “affinity in terms of solubility toward DMPA” value is reported as “good affinity toward DMPA”. In addition, the normal boiling point in data set [2] was 175.186 °C.
`COCC(C)OCC(C)OC` (stereo not drawn) [dipropylene glycol dimethyl ether, reference compound] had a normal boiling point in data set [2] of 174.931 °C.

These data come from patent US11267925B2, “Water-based polyurethane dispersions and their preparation” (Dow Global Technologies LLC, priority 2017, dated 2022).
